Measurements from patent publication US20230405003A1, “APPLICATION OF THYMIDINE DERIVATIVE IN PREPARATION OF DRUGS” (ONQUALITY PHARMACEUTICALS CHINA LTD., priority 2020, published 2023).
Read-outs that look alike come from different tables or passages of the source.

Experiments:
[1] = tested on: pain in capecitabine hand-foot syndrome rats; assay: Pain of hand-foot syndrome, mechanical sensitivity in rats (von Frey); assay type: in vivo, rat; settings: capecitabine 4000 mg/kg hand-foot syndrome rats; thymidine derivative 3%
Experimental: According to the method of Examples 91-115, after administration of a thymidine derivative (at a concentration of 3%) and co-administration of a thymidine derivative (at a concentration of 1%) with a uridine derivative (at a concentration of 3%) to rat hand-foot syndrome models constructed from 4000 mg/kg of capecitabine for a period of time, pain analysis was performed on the rats, and the pain assessment model was mechanical sensitivity in rats (von Frey). The experimental steps were as follows: first, the rats were allowed to adapt in the room for 1 hour, then the rats were placed in an observation box with a metal mesh floor, and the mice were allowed to stay in the box for 20 minutes to adapt to the experimental platform. Next, a von Frey device was used to detect paw pain by stimulating the surface of the rat's palm with specially designed cilia to detect the mechanical sensitivity of the animal at strength of 0.4 g, 0.8 g, 1.5 g, 2.5 g, 4 g, 8 g, 10 g and 20 g (IITC Life Science, Woodland Hills, 2390 series). […] The rat movement response was considered to be a vague response, in which case the stimulation experiment was repeated.

[2] = tested on: hand-foot syndrome caused by capecitabine in SD rats; assay: Rat model of hand-foot syndrome caused by capecitabine, gel application; assay type: in vivo; settings: capecitabine 4000 mg/kg once daily, 40 days; for inhibition in vivo at 3 % / inhibition in vivo at 1 % / inhibition in vivo at 5 %: Rattus norvegicus, topical, 960 h; for inhibition in vivo at 3 % / inhibition in vivo at 1 % / inhibition in vivo at 5 % / Control Rate Forepaws / Control Rate Hindpaws: rats; for Control Rate: SD rats
Experimental: A rat animal model was established. 6-week aged female SD rats were administered with capecitabine by daily gavage. The degree of hand-foot syndrome in paws is similar, and there was no difference between the left and right paws. Similar to the human body, rats developed hand-foot syndrome after oral administration of capecitabine. The causes of the two are the same, and the disorder is also very similar. Therefore, rats are very good animal models for simulating the hand-foot syndrome caused by capecitabine.
After SD rats were fed and adapted for one week (about 200 g), the rats were divided into groups, with 10 rats in each group. Then, the rats were subject to gavage administration. Capecitabine was dissolved in a 1:1 mixed solution of castor oil and ethanol and diluted for three times with PBS buffer. After gavage, the rats were fixed with a fixed cylinder, and a gel of thymidine derivative (or a compounded gel of thymidine derivative and uridine derivative) was applied to double hind paws (about 1 cm*3 cm) of the rats in group of administration (the types and concentrations are shown in Table 4), and a blank gel was applied to the group of blank (as a blank control). After approximately 4 hours of application, the rats were released after 4 hours, wiped with clean water to remove any residual drug at the application site, and allowed back to the cage. The thymidine derivative gel (or the compounded gel of thymidine derivative and uridine derivative) was administered with gavage every day. The gavage and application tests are repeated daily until the group of blank has developed obvious hand-foot syndrome.
Table 4 lists the combinations of animal experiments of capecitabine and the thymidine derivative gel (or the compounded gel of thymidine derivative and uridine derivative) and the corresponding experimental results (wherein, the data in the column of control rate=the occurrence rate of hand-foot syndrome in group of blank—the occurrence rate of hand-foot syndrome in group of administration). […]

[3] = tested on: hand-foot syndrome caused by capecitabine in Balb/c mice; assay: Mouse model of hand-foot syndrome caused by capecitabine, gel application or oral administration; assay type: in vivo; settings: capecitabine 1000 mg/kg once daily; for inhibition in vivo at 300 mg/kg / inhibition in vivo at 0.5 % / inhibition in vivo at 2 % / inhibition in vivo at 5 % / inhibition in vivo at 200 mg/kg / inhibition in vivo at 250 mg/kg: Mus musculus; for inhibition in vivo at 300 mg/kg / inhibition in vivo at 200 mg/kg / inhibition in vivo at 250 mg/kg: 192 h, 8 days; for inhibition in vivo at 300 mg/kg: oral 300 mpk twice per day; for inhibition in vivo at 0.5 % / inhibition in vivo at 2 % / inhibition in vivo at 5 %: topical, 360 h; for inhibition in vivo at 0.5 %: gel 0.5 wt%; for inhibition in vivo at 0.5 % / inhibition in vivo at 2 % / inhibition in vivo at 5 % / Control Rate Forepaws / Control Rate Hindpaws: 15 days; for inhibition in vivo at 2 %: gel 2 wt%; for inhibition in vivo at 5 %: gel 5 wt%; for inhibition in vivo at 200 mg/kg: oral 200 mpk twice per day; for inhibition in vivo at 250 mg/kg: oral 250 mpk twice per day
Experimental: A mouse animal model was established. 6-week aged male Balb/c mice were administered with capecitabine by daily gavage. After a few days, mice's paws developed hand-foot syndrome symptoms (similar to the results of the rat model, such as, in FIG. 13). Similar to the human body, mice developed hand-foot syndrome in the forepaws and hind paws after oral administration of capecitabine. The causes of the two are the same, and the disorder is also very similar. Therefore, mice are very good animal models for simulating the hand-foot syndrome caused by capecitabine.
After Balb/c mice were fed and adapted for one week (about 20 g), the mice were divided into groups, with 10 mice in each group. Then, the mice were subject to gavage administration. Capecitabine was dissolved in normal saline with pH=8, and the gavage dose was not greater than 0.3 mL at each time. After gavage, the blank gel was applied to the forepaws and the hind paws (about 4*0.5 cm*0.5 cm) in group of blank gel, and gels containing different drugs were applied to the forepaws and the hind paws (about 4*0.5 cm*0.5 cm) in group of administration. After application, the mice were fixed in Elizabethan collar for 4 hours. After 4 hours, the mice were released, wiped with clean water to remove any residual drug at the application site, and allowed back to the cage. The gavage and application tests are repeated daily until the group of blank has developed obvious hand-foot syndrome. […] Additionally, the thymidine derivative and the combination of thymidine derivative and uridine derivative were orally administered for observing the relief of the hand-foot syndrome. In examples 41-48, thymidine derivative and/or uridine derivative were/was applied, and in examples 49-52, thymidine derivative and/or uridine derivative were/was administered orally.
Table 5 lists the combinations of animal experiments of capecitabine and thymidine derivative (or a combination of thymidine derivative and uridine derivative) and the corresponding experimental results (wherein the data in the column of control rate=the occurrence rate of hand-foot syndrome in group of blank—the occurrence rate of hand-foot syndrome in group of administration).
The effect of thymidine derivative or a combination of thymidine derivative and uridine derivative on a mouse model with chemotherapeutic drug (capecitabine)-induced hand-foot syndrome was tested according to the method in Examples 41-52. Wherein, the drugs were administered transdermally for Examples 119-120 and orally for Examples 121-123.
The test thymidine derivative or the combination of thymidine derivative and uridine derivative, as well as the final concentration of the test compounds were shown in Table 9. Table 9 lists the combinations of animal experiments of capecitabine and the thymidine derivative gel (or a compounded gel of thymidine derivative and uridine derivative) and the corresponding experimental results (wherein the data in the column of control rate=the occurrence rate of hand-foot syndrome in Group of blank—the occurrence rate of hand-foot syndrome in Group of administration).

[4] = gel 3 wt%, read-out: Control Rate Forepaws
[5] = gel 3 wt%, read-out: Control Rate Hindpaws
[6] = read-out: Control Rate Forepaws
[7] = read-out: Control Rate Hindpaws

CC(=O)OCC1OC(n2cc(C)c(=O)[nH]c2=O)CC1OC(C)=O (centres unmarked) [T1]
pain in rats (von Frey mechanical sensitivity) [1]: did not significantly improve pain in rats | inhibition in vivo at 3 % [2, 4]: 57.1% | inhibition in vivo at 3 % [2, 5]: 71.4% | Control Rate ([2]; gel 0.5 wt% on hind paws): 20.00% | Control Rate ([2]; gel 2 wt% on hind paws): 27.50% | Control Rate ([2]; gel 5 wt% on hind paws): 56.67% | inhibition in vivo at 300 mg/kg [3, 6]: 80% | inhibition in vivo at 300 mg/kg [3, 7]: 90% | inhibition in vivo at 0.5 % [3, 6]: 30% | inhibition in vivo at 0.5 % [3, 7]: 20% | inhibition in vivo at 2 % [3, 6]: 45.6% | inhibition in vivo at 2 % [3, 7]: 34.4% | inhibition in vivo at 5 % [3, 6]: 67.8% | inhibition in vivo at 5 % [3, 7]: 78.9%

Cc1cn([C@H]2C[C@H](O)[C@@H](COC(=O)[C@H](C)c3ccc(CC(C)C)cc3)O2)c(=O)[nH]c1=O [T32]
pain in rats (von Frey mechanical sensitivity) [1]: could significantly improve pain in rats | inhibition in vivo at 3 % [2, 4]: 37.5% | inhibition in vivo at 3 % [2, 5]: 62.5% | inhibition in vivo at 300 mg/kg [3, 6]: 71.4% | inhibition in vivo at 300 mg/kg [3, 7]: 57.1%

CC1=C(CC(=O)OC[C@H]2O[C@@H](n3cc(C)c(=O)[nH]c3=O)C[C@@H]2O)c2cc(F)ccc2/C1=C\c1ccc([S+](C)[O-])cc1 (some centres unmarked) [T40]
inhibition in vivo at 3 % [2, 4]: 44.4% | inhibition in vivo at 3 % [2, 5]: 66.7% | inhibition in vivo at 200 mg/kg [3, 6]: 75% | inhibition in vivo at 200 mg/kg [3, 7]: 88%

Cc1ccc(C(=O)c2ccc(CC(=O)O[C@H]3C[C@H](n4cc(C)c(=O)[nH]c4=O)O[C@@H]3CO)n2C)cc1 [T45]
pain in rats (von Frey mechanical sensitivity) [1]: could significantly improve pain in rats | inhibition in vivo at 1 % ([2]; gel 1 wt%, read-out: Control Rate Forepaws): 25% | inhibition in vivo at 1 % ([2]; gel 1 wt%, read-out: Control Rate Hindpaws): 37.5% | inhibition in vivo at 5 % ([2]; gel 5 wt%, read-out: Control Rate Forepaws): 55.6% | inhibition in vivo at 5 % ([2]; gel 5 wt%, read-out: Control Rate Hindpaws): 77.8% | inhibition in vivo at 250 mg/kg [3, 6]: 57.1% | inhibition in vivo at 250 mg/kg [3, 7]: 42.9%

Cc1cn([C@H]2C[C@H](OC(=O)C(C)c3cccc(C(=O)c4ccccc4)c3)[C@@H](CO)O2)c(=O)[nH]c1=O (some centres unmarked) [T50]
pain in rats (von Frey mechanical sensitivity) [1]: could significantly improve pain in rats | inhibition in vivo at 3 % [2, 4]: 71.4% | inhibition in vivo at 3 % [2, 5]: 57.1%

Cc1cn([C@H]2C[C@H](O)[C@@H](COC(=O)C(C)c3cccc(Oc4ccccc4)c3)O2)c(=O)[nH]c1=O (stereo partly drawn) [T27, ((2R,3S, 5R)-3-hydroxyl-5-(5-methyl-2,4-dioxy-3,4-dihydropyrimidin-1(2H)-yl)tetrahydrofuran-2-yl)2-(3-phenoxyphenyl)propionate Methyl]
pain in rats (von Frey mechanical sensitivity) [1]: could significantly improve pain in rats | Control Rate Forepaws ([2]; gel 0.10 wt%): 22.22% | Control Rate Hindpaws ([2]; gel 0.10 wt%): 44.44% | Control Rate Forepaws ([2]; gel 0.50 wt%): 33.33% | Control Rate Hindpaws ([2]; gel 0.50 wt%): 33.33% | Control Rate Forepaws ([2]; gel 1 wt%): 25% | Control Rate Hindpaws ([2]; gel 1 wt%): 50% | Control Rate Forepaws ([2]; gel 3 wt%): 57.14% | Control Rate Hindpaws ([2]; gel 3 wt%): 71.43% | Control Rate Forepaws ([2]; gel 5 wt%): 50% | Control Rate Hindpaws ([2]; gel 5 wt%): 75.00% | Control Rate Forepaws ([3]; transdermal 1% (wt %)): 50% | Control Rate Hindpaws ([3]; transdermal 1% (wt %)): 62.50% | Control Rate Forepaws ([3]; transdermal 3% (wt %)): 42.86% | Control Rate Hindpaws ([3]; transdermal 3% (wt %)): 71.43%

Cc1ccc(C(=O)c2ccc(CC(=O)OC[C@H]3O[C@@H](n4cc(C)c(=O)[nH]c4=O)C[C@@H]3O)n2C)cc1 [T36]
pain in rats (von Frey mechanical sensitivity) [1]: could significantly improve pain in rats | Control Rate Forepaws ([2]; gel 1 wt%): 28.57% | Control Rate Hindpaws ([2]; gel 1 wt%): 42.86% | Control Rate Forepaws ([2]; gel 3 wt%): 44.44% | Control Rate Hindpaws ([2]; gel 3 wt%): 44.44%

CC(=O)OC[C@H]1O[C@@H](n2cc(C)c(=O)[nH]c2=O)C[C@@H]1O [T3]
Control Rate ([2]; gel 1 wt% on hind paws): 27.50% | inhibition in vivo at 2 % [3, 6]: 20% | inhibition in vivo at 2 % [3, 7]: 30%

CC(=O)O[C@H]1C[C@H](n2cc(C)c(=O)[nH]c2=O)O[C@@H]1CO [T2]
Control Rate ([2]; gel 1 wt% on hind paws): 23.33% | inhibition in vivo at 2 % [3, 6]: 40% | inhibition in vivo at 2 % [3, 7]: 27.5%
